The source of these data is patent US20240279232A1, “USE OF SUBSTITUTED 5-(4-METHYL-6-PHENYL-4H-BENZO[F]IMIDAZO[1,5-A][1,4] DIAZEPIN-3-YL)-1,2,4-O[…] THE TREATMENT OF INFLAMMATORY CONDITIONS” (priority 2021, published 2024).

Data set [1] deals with BZR (benzodiazepine site of GABAAR). Description: GABAAR/BZR binding, rat brain homogenate with 3H-flunitrazepam. To be noted: for BZR %: Percent inhibition at 10,000 nM. Put shortly:
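Rat brain homogenate incubated with 3H-flunitrazepam near its Kd, typically 90 min at room temperature in the dark; nonspecific binding defined with 10 μM reference compound. Filtration on PEI-soaked mats, scintillation counting; compounds screened at 10,000 nM, those above 50% displacement taken to concentration–response for Ki by nonlinear regression (n=6).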

For data set [2], the system named is Mouse microglia. As to the kind of experiment: NO production (Griess assay), LPS/IFNγ-activated mouse microglia. To be noted: for inhibition at 10 µM / inhibition at 50 µM: Mus musculus, Microglia, 24 h. It is filed as cell-based.
The test system of data set [3] is RAW macrophages. Description: Cell viability (CellTiter-Glo), RAW macrophages. As to conditions: for Cell viability (%) RAW macrophages 50 μM: CellTiter-Glo; for toxicity at 50 μM (in words): macrophages. It is filed as cell-based, mouse.
Data set [4] has as its system Swiss Webster mice. Description: Rotarod test. To be noted: for sensorimotor deficits on the rotarod: p.o. at 4-fold the effective dose in the formalin test.
For data set [5], the target named is 5-HT1D (Homo sapiens, UniProt P28221). As to the kind of experiment: PDSP primary binding 5-HT1D. To be noted: PDSP primary screening. The method, then: (§1) Because reduction of NO could not be reversed by GABAAR antagonists, the possible binding of MP-IV-010 to other cellular receptors was evaluated in collaboration with the NIMH Psychoactive Drug Screening Program.
Chain of 5-HT1D (P28221 whole entry, species assumed): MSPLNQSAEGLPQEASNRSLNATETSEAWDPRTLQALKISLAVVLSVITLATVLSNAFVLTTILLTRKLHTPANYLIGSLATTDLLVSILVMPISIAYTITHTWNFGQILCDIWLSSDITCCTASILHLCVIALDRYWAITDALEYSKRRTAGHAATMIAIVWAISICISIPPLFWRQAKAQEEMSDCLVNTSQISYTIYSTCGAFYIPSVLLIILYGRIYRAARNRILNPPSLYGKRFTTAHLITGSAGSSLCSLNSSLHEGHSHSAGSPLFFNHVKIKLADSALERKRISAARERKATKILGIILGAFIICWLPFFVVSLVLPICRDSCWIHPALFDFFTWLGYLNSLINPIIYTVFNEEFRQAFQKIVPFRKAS
(§2) Psychoactive Drug Screening Program. Detailed protocols for the primary and secondary radioligand binding assays can be found in the National Institute of Mental Health's Psychoactive Drug Screening Program (NIMH PDSP) Assay Protocol Book. Briefly, primary and secondary radioligand binding assays are carried out in a final of volume of 125 μL per well in appropriate binding buffer. The radioactive ligand concentration is close to the Kd. Total binding and nonspecific binding are determined in the absence and presence of 10 μM of appropriate reference compound, respectively. In brief, plates are usually incubated at room temperature and in the dark for 90 min. Reactions are stopped by vacuum filtration onto 0.3% polyethyleneimine (PEI) soaked 96-well filter mats using a 96-well Filtermate harvester, followed by three washes with cold PBS buffer. Scintillation cocktail is then melted onto the microwave-dried filters on a hot plate and radioactivity counted in a Microbeta counter. The data (n=6) were analyzed by nonlinear regression.

For data set [6], the target named is 5-HT5A (Homo sapiens, UniProt P47898). Description: PDSP primary binding 5-HT5A. As to conditions: PDSP primary screening. The method, then:
as §1, §2

The target of data set [7] is 5-HT6 (Homo sapiens, UniProt P50406). Description: PDSP primary binding 5-HT6. To be noted: PDSP primary screening. The method, then:
as §1, §2

In data set [8] the target is D3 (Homo sapiens, UniProt P35462). As to the kind of experiment: PDSP primary binding D3. As to conditions: PDSP primary screening. The method, then:
as §1, §2

In data set [9] the test system is Calcium Channel. Description: PDSP primary binding Calcium Channel. To be noted: PDSP primary screening. The method, then: as §1, §2
Data set [10] addresses Alpha1A (Homo sapiens, UniProt P35348). As to the kind of experiment: PDSP primary binding Alpha1A. To be noted: PDSP primary screening. The method, then:
as §1, §2

Data set [11] has as its target Alpha2A (Homo sapiens, UniProt P08913). As to the kind of experiment: PDSP primary binding Alpha2A. As to conditions: PDSP primary screening. The method, then: as §1, §2
The target in data set [12] is M5 (Homo sapiens, UniProt P08912). As to the kind of experiment: PDSP primary binding M5. To be noted: PDSP primary screening. The method, then:
as §1, §2

[13] abbreviates: rat brain homogenate, 3H-flunitrazepam.

Chain of 5-HT6 (P50406 whole entry, species assumed): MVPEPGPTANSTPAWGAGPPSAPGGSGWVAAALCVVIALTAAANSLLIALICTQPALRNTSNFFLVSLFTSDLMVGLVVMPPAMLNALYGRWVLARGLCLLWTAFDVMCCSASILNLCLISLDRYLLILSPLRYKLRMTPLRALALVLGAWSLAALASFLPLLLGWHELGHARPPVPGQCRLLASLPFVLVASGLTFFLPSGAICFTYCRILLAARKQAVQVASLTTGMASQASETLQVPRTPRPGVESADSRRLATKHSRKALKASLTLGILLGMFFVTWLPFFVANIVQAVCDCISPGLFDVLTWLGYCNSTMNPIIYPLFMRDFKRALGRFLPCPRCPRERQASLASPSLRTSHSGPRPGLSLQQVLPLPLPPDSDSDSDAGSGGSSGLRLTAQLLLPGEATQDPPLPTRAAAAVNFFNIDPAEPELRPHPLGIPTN
Chain of Alpha1A (P35348 whole entry): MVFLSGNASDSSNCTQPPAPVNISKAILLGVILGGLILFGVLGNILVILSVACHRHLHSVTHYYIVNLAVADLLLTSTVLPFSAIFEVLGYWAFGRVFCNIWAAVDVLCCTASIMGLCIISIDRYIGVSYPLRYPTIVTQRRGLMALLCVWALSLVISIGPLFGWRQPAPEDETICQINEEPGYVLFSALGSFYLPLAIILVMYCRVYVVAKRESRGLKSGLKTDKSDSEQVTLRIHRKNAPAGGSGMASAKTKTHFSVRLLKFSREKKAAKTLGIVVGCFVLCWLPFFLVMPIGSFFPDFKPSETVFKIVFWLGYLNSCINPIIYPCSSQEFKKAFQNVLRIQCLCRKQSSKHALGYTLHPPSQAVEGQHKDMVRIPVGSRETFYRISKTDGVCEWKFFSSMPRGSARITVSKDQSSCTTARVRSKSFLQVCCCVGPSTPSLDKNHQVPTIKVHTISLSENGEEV
Chain of M5 (P08912 whole entry): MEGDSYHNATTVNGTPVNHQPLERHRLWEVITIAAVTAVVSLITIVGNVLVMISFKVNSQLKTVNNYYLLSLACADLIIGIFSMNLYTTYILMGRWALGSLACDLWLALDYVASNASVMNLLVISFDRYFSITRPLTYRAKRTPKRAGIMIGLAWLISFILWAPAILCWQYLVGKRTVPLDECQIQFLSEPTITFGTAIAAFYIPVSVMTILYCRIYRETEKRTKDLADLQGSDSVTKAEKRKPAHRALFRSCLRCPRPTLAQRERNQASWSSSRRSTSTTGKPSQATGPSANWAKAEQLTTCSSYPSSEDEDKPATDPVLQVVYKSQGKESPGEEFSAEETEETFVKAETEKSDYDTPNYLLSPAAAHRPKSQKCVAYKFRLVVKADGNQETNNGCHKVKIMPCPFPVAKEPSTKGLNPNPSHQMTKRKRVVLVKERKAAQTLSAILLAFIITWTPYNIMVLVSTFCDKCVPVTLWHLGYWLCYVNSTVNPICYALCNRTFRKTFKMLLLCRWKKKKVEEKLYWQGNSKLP
Chain of D3 (P35462 whole entry): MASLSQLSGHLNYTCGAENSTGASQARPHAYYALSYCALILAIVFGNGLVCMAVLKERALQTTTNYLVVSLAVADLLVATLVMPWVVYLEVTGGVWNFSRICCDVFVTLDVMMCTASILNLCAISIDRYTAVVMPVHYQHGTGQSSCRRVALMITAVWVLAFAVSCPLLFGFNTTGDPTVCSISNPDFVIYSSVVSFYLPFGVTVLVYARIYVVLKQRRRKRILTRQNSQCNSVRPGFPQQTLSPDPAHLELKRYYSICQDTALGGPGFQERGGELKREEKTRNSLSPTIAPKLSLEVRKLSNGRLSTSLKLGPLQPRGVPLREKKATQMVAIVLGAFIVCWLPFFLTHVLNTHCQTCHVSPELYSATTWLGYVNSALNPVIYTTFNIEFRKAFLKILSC
Chain of 5-HT5A (P47898 whole entry, species assumed): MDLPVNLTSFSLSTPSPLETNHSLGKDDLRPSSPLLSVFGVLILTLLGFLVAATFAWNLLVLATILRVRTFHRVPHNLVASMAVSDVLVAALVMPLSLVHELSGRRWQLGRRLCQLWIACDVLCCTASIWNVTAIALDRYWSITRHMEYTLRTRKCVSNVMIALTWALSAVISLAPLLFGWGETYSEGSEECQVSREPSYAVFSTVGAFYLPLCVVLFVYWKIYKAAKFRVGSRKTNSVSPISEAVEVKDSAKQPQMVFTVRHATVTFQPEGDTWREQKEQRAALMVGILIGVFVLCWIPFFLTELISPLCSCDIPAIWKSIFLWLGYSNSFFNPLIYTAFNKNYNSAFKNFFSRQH
Chain of Alpha2A (P08913 whole entry): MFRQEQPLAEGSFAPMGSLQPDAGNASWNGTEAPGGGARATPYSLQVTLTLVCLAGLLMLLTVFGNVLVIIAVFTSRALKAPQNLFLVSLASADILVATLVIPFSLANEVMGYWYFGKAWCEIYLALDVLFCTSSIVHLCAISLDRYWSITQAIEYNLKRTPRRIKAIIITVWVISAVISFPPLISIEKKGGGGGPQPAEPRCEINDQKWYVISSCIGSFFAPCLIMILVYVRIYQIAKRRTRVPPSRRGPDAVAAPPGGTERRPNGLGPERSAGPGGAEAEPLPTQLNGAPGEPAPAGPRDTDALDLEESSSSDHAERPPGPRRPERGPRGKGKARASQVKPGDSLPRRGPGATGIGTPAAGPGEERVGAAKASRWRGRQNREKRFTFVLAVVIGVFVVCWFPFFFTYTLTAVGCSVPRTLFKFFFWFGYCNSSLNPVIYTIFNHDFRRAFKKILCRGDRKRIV

As to `C[C@H]1N=C(c2ccccc2F)c2cc(C3CC3)ccc2-n2cnc(C(=O)N(C)C)c21` [GL-III-70], in data set [1] (setting [13]), the BZR % is listed as 100% and the Ki stood at 3.4 µM. This molecule also showed an inhibition at 10 µM in data set [2] of 32 ± 4%. The “Cell viability (%) RAW macrophages 50 μM” value in data set [3] is 100 ± 2%.
`C#Cc1ccc2c(c1)C(c1ccccc1F)=N[C@H](C)c1c(-c3nc(C)no3)ncn1-2` [MP-IV-004]: in data set [1] (setting [13]), the BZR % was found to be 63% and the Ki is 1.08 µM. In data set [2], this molecule displayed an inhibition at 10 µM of 34 ± 5% and an inhibition at 50 µM of 60 ± 6%. For the same molecule, in [3], the “Cell viability (%) RAW macrophages 50 μM” value is given as 83 ± 12%.
Regarding `C#Cc1ccc2c(c1)C(c1ccccc1F)=N[C@H](C)c1c(C(=O)NC(C)C)ncn1-2` [GL-III-66], in [1] (setting [13]), the BZR % came out at 88% and the Ki stood at 0.271 µM. The molecule also yielded an inhibition at 10 µM in [2] of 13 ± 2%. Also, the “Cell viability (%) RAW macrophages 50 μM” value in data set [3] came to 100 ± 9%.
On to `C[C@@H]1N=C(c2ccccc2F)c2cc(Br)ccc2-n2cnc(-c3cnco3)c21` [GL-III-76], for which, in data set [1] (setting [13]), the BZR % was 100% and the Ki worked out at 0.12 µM. This molecule gave an inhibition at 10 µM in data set [2] of 34 ± 1%. In data set [3], the “Cell viability (%) RAW macrophages 50 μM” value was 100 ± 5%.
`C#Cc1ccc2c(c1)C(c1ccccc1F)=N[C@@H](C)c1c(-c3cnco3)ncn1-2` [GL-III-78]: in data set [1] (setting [13]), the BZR % turned out to be 101% and the Ki was 0.026 µM. This molecule also returned an inhibition at 10 µM in [2] of 39 ± 5%. The “Cell viability (%) RAW macrophages 50 μM” value in data set [3] came out at 97 ± 2%.
On to `CCc1noc(-c2ncn3c2[C@@H](C)N=C(c2ccccc2F)c2cc(C4CC4)ccc2-3)n1` [GL-IV-03, (R)-5-(8-Cyclopropyl-6-(2-fluorophenyl)-4-methyl-4H-benzo[f]imidazo[1,5-a][1,4]diazepin-3-yl)-3-ethyl-1,2,4-oxadiazole], for which the BZR % in data set [1] (setting [13]) is 65%. The same molecule gave an inhibition at 10 µM in data set [2] of 90%. In data set [3], the “Cell viability (%) RAW macrophages 50 μM” value is 97 ± 7% and the “toxicity at 50 μM (in words)” value is “no significant toxicity”. In addition, the “ability of mice to balance on a rotating rod for three minutes” value in data set [4] (intraperitoneal, 10 and 40 mg/kg) is on record as “did not influence the ability of mice to balance”. Further, the “sensorimotor deficits on the rotarod” value in data set [4] was “did not cause any sensorimotor deficits”.
Take `CCOC(=O)c1ncn2c1[C@@H](C)N=C(c1ccccc1F)c1cc(C3CC3)ccc1-2` [GL-III-42]: in [1] (setting [13]), the BZR % is 62% and the Ki was determined as 0.726 µM. The same molecule displayed an inhibition at 10 µM in data set [2] of 55 ± 12%. Also, the “Cell viability (%) RAW macrophages 50 μM” value in data set [3] is 100 ± 6%.
As for `C#Cc1ccc2c(c1)C(c1ccccc1F)=N[C@H](C)c1c(C(=O)NC)ncn1-2` [MP-III-022], in [1] (setting [13]), the BZR % amounted to 95% and the Ki came to 0.083 µM. In data set [2], this molecule displayed an inhibition at 10 µM of 36 ± 6% and an inhibition at 50 µM of 60 ± 12%. The “Cell viability (%) RAW macrophages 50 μM” value in data set [3] was determined as 100 ± 11%.
For the molecule `C#Cc1ccc2c(c1)C(c1ccccc1F)=N[C@H](C)c1c(-c3cnco3)ncn1-2` [GL-III-73], in [1] (setting [13]), the BZR % is 65% and the Ki was 0.602 µM. Besides, the inhibition at 10 µM in [2] stood at 40 ± 3%. The “Cell viability (%) RAW macrophages 50 μM” value in data set [3] worked out at 100 ± 4%.
As for `C[C@H]1N=C(c2ccccc2F)c2cc(Br)ccc2-n2cnc(C(=O)N(C)C)c21` [GL-III-69], in data set [1] (setting [13]), the BZR % was determined as 100% and the Ki stood at 0.446 µM. This molecule displayed an inhibition at 10 µM in [2] of 37 ± 6%. Besides, in data set [3], the “Cell viability (%) RAW macrophages 50 μM” value is 98 ± 10%.
`CCNC(=O)c1ncn2c1[C@@H](C)N=C(c1ccccc1F)c1cc(C3CC3)ccc1-2` [GL-III-68]: in data set [1] (setting [13]), the BZR % is 100% and the Ki is 0.452 µM. In data set [2], the inhibition at 10 µM turned out to be 24 ± 5%. Moreover, the “Cell viability (%) RAW macrophages 50 μM” value in [3] came to 100 ± 8%.
As to `Cc1noc(-c2ncn3c2[C@@H](C)N=C(c2ccccc2F)c2cc(C4CC4)ccc2-3)n1` [GL-III-63, (R)-5-(8-Cyclopropyl-6-(2-fluorophenyl)-4-methyl-4H-benzo[f]imidazo[1,5-a][1,4]diazepin-3-yl)-3-methyl-1,2,4-oxadiazole], in data set [1] (setting [13]), the BZR % turned out to be 28%. In data set [2], this molecule displayed an inhibition at 10 µM of 25 ± 4% and an inhibition at 50 µM of 89 ± 12%. The “Cell viability (%) RAW macrophages 50 μM” value in [3] turned out to be 87 ± 15%.
For `C[C@H]1N=C(c2ccccn2)c2cc(Br)ccc2-n2cnc(C(=O)O)c21` [GL-II-51], in [1] (setting [13]), the BZR % is on record as 84% and the Ki amounted to 0.181 µM. In addition, 10 µM produced 9 ± 4% inhibition in [2]. The “Cell viability (%) RAW macrophages 50 μM” value in data set [3] amounted to 100 ± 3%.
Regarding `CCOC(=O)c1ncn2c1[C@@H](C)N=C(c1ccccn1)c1cc(Br)ccc1-2` [GL-II-06], in [1] (setting [13]), the BZR % is 81% and the Ki stood at 0.556 µM. Further, in data set [2], the inhibition at 10 µM worked out at 14 ± 3%. Also, the “Cell viability (%) RAW macrophages 50 μM” value in data set [3] is given as 100 ± 10%.
For `C[C@H]1N=C(c2ccccc2F)c2cc(Cl)ccc2-n2cnc(C(=O)O)c21` [GL-III-54] the same measures were 100%, 0.042 µM, 31 ± 9% and 99 ± 12%.
Take `C[C@H]1N=C(c2ccccc2F)c2cc(Br)ccc2-n2cnc(-c3cnco3)c21` [GL-III-36]: in data set [1] (setting [13]), the BZR % came to 86% and the Ki came to 0.319 µM. In data set [2], 10 µM produced 8 ± 5% inhibition and at 50 µM the inhibition was 41 ± 7%. In addition, the “Cell viability (%) RAW macrophages 50 μM” value in [3] stood at 81 ± 5%.
On to `Cc1noc(-c2ncn3c2[C@@H](C)N=C(c2ccccc2F)c2cc(Br)ccc2-3)n1` [GL-III-60, (R)-5-(8-Bromo-6-(2-fluorophenyl)-4-methyl-4H-benzo[f]imidazo[1,5-a][1,4]diazepin-3-yl)-3-methyl-1,2,4-oxadiazole], for which, in data set [1] (setting [13]), the BZR % worked out at 100% and the Ki worked out at 0.784 µM. Besides, in data set [2], the inhibition at 10 µM was 55 ± 8% and the inhibition at 50 µM was found to be 68 ± 8%. In data set [3], the “Cell viability (%) RAW macrophages 50 μM” value worked out at 86 ± 12%.
Consider `C#Cc1ccc2c(c1)C(c1ccccc1F)=N[C@H](C)c1c(-c3nc(C(C)C)no3)ncn1-2` [MP-IV-010, (R)-5-(8-ethynyl-6-(2-fluorophenyl)-4-methyl-4H-benzo[f]imidazo[1,5-a][1,4]diazepin-3-yl)-3-isopropyl-1,2,4-oxadiazole], for which the “Percent Competition BZP Rat Brain Site” value in data set [1] (PDSP primary screening) is listed as 64%. In addition, in [1] (setting [13]), the BZR % amounted to 64% and the Ki was 0.814 µM. In data set [1] (rat brain homogenate, 3H-flunitrazepam, read-out: affinity for the benzodiazepine site of GABAARs (IC50)), the IC50 came out at 2.5 µM. Moreover, in [2], 10 µM produced 66 ± 13% inhibition and the inhibition at 50 µM is 96 ± 13%. For the same molecule, in [2] (dexamethasone 100 nM, GABA 1 μM, MP-IV-010 50 μM, GL-II-33 in the library screen), the “NO production of activated microglia (in words)” value is on record as “significant reduction”. Also, in data set [3], the “Cell viability (%) RAW macrophages 50 μM” value came to 81 ± 10% and the “toxicity at 50 μM (in words)” value was “no significant toxicity”. Moreover, the “Percent Competition 5-HT1D” value in data set [5] is on record as 6%. The “Percent Competition 5-HT5A” value in [6] stood at 11%. Further, the “Percent Competition 5-HT6” value in data set [7] was found to be 21%. Moreover, the “Percent Competition D3” value in data set [8] is listed as 15%. The “Percent Competition Calcium Channel” value in [9] is 15%. The “Percent Competition Alpha1A” value in data set [10] is 2%. The “Percent Competition Alpha2A” value in data set [11] was 14%. Besides, the “Percent Competition M5” value in data set [12] was determined as 26%. Besides, in [4], the “sensorimotor deficits on the rotarod” value is given as “did not cause any sensorimotor deficits”.
